Earlier results in article PMC6925144, “A prospective compound screening contest identified broader inhibitors for Sirtuin 1” (Scientific Reports, 2019).

How the values were obtained:
[1] = test system: Sirtuin 1; conditions: cited from earlier work
[2] = test system: human leukemia U937 cells; parameters: method as in PMID 18348515; conditions: cited from earlier work

## O=C1/C(=C/c2cc(Br)c(O)c(Br)c2)CCC/C1=C\c1cc(Br)c(O)c(Br)c1 [CHEMBL260149]
[1]; 25 μM
  Inh. rate@25 μM: 0.95 (Inh. rate@25 μM: 50%)[57]
[2]
  effect on apoptosis induction and granulocytic differentiation: high differentiating activity

## COc1ccc(CNCc2c(-c3nnc(SC(C)C)n3-c3ccccc3)n(C)c3ccc(F)cc23)cc1 [CHEMBL2436120]
[1]; 40 μM
  Inh. rate@40 μM: 0.65 (Inh. rate@40 μM: 70%)[70]
